{
  "source": "paper PMC12736270",
  "about": "“Application of Data-Centric Supervised Machine Learning to Predict Phenotypic Activity Against Clinically Relevant Stages of Trypanosoma cruzi” (Pharmaceutics, 2025)",
  "key": {"[1]": {"system": "culture-derived trypomastigotes of the T. cruzi Y strain", "experiment": "Trypanocidal effect on Y strain trypomastigotes (resazurin viability)", "format": "cell-based, Trypanosoma cruzi", "conditions": "for Activity on Y Trypomastigotes: tested at 10 µM and 50 µM, 24 h", "method": "(§1) For the evaluation of the trypanocidal effect of selected drugs on trypomastigotes, assays were performed using culture-derived trypomastigotes of the T. cruzi Y and K98 strains. Parasites were incubated in 96-well plates at a density ranging from 5 × 10^5 to 1 × 10^6 trypomastigotes per well, in a final volume of 100 μL of MEM supplemented with 5% serum. Test compounds were previously dissolved in dimethyl sulfoxide (DMSO) and added to the wells so that the final DMSO concentration was 1%. Wells containing 1% DMSO were used as vehicle controls, and 10 μM BZN served as a positive control. In the case of the Y strain, after 24 h of incubation at 37 °C, 10 μL of resazurin solution was added to reach a final concentration of 0.01 mg/mL. Plates were incubated for approximately 4 h at 37 °C to allow fluorescence development, and readings were performed in a microplate reader with excitation and emission wavelengths of 530 nm and 590 nm, respectively. To calculate EC50 in trypomastigotes, six points were used in a concentration range of 5 to 100 μM. At least three independent assays were performed. In the case of the K98 strain, after 24 h of incubation, motile parasites were counted in a hemocytometer chamber under a light microscope. Controls consisted of RPMI-1640 supplemented with 5% FBS as well as RPMI-1640 with 0.1% DMSO. At least three independent assays were performed."}, "[2]": {"system": "trypomastigotes of the K98 strain (TcI)", "experiment": "Trypanocidal effect on K98 strain trypomastigotes (motile parasite count)", "format": "cell-based, Trypanosoma cruzi", "conditions": "24 h of incubation", "method": "as §1"}, "[3]": {"parameters": "method as in PMID 37061109", "conditions": "phase III clinical trial, non-alcoholic steatohepatitis; cited from earlier work"}, "[4]": {"system": "intracellular amastigotes of the Tulahuen strain", "experiment": "Intracellular amastigote assay, Tulahuen β-galactosidase strain in Vero cells", "format": "cell-based, Trypanosoma cruzi", "conditions": "for EC50: Trypanosoma cruzi, TULAHUEN, read-out: Activity on Tul Amastigotes; for activity on intracellular amastigotes: Tulahuen strain, infected Vero cells", "method": "To evaluate the trypanocidal effect of the selected compounds on intracellular amastigotes, the drug screening method reported by Buckner et al. was adapted. Vero cells were seeded at 1 × 10^4 per well on a 96-well culture plate in 100 μL MEM-5% FBS. Tulahuen trypomastigotes overexpressing the E. coli β-galactosidase protein (LacZ clone C4 strain—ATCC® PRA-330™, ATCC, Manassas, VA, USA) were used to infect Vero cell monolayers (MOI: 10:1) in triplicate. After 2 h incubation at 37 °C, the culture media were removed and non-internalized parasites were eliminated by washing each well with at least 10 vol of sterile PBS 1X, after which fresh MEM-5% FBS was added. After 16–18 h, the culture medium was replaced with culture medium bearing the compounds to be tested at the desired concentration. Test compounds were prepared in DMSO, ensuring a final DMSO concentration of 1%. Cells treated with 1% DMSO were used as vehicle controls. To determine the IC50, each drug was evaluated in at least six different concentrations (usually 0.78, 1.56, 3.13, 6.25, 12.5, and 50.0 μM). The plate was further incubated for another 72 h at 37 °C, after which the culture media were removed and cells and intracellular amastigotes were lysed in 100 μL lysis buffer (25 mM Tris pH 8, 2 mM EDTA, 2 mM DTT, 1% Triton X-100, 10% glycerol in ultrapure MQ water) for 10 min at 37 °C. Then, 100 μL 2X reaction buffer (200 mM sodium phosphate, pH 8, 2 mM MgCl2, 100 mM 2-mercaptoethanol, and 1.33 mg.mL^−1 o-nitrophenyl-β-galactoside (ONPG)) was added, and the reaction was allowed to proceed until a yellow color developed (1–2 h at 37 °C). The absorbance at 420 nm was measured in a Synergy HTX multi-mode microplate reader (Biotek Instruments, Winooski, VT, USA) and normalized to the value obtained for the infection in the absence of inhibitors. IC50 for BZN was also evaluated following this method (concentrations evaluated: 0.10, 0.20, 0.39, 0.78, 1.56, 3.13, 6.25, 12.5, and 50.0 μM). Uninfected cells were included as blanks. Each compound was tested in at least two independent experiments."}, "Vero cells": {"system": "Vero cells", "experiment": "Cytotoxicity against Vero cells", "format": "cell-based", "conditions": "for CC50 Vero Cells: Not toxic = no toxic effect observed up to 50 µM"}, "[5]": {"experiment": "Cytotoxicity against Vero cells", "format": "cell-based", "conditions": "African green monkey, Vero cells; Not toxic = no toxic effect observed up to 50 µM"}, "[6]": {"conditions": "intracellular amastigotes infecting Vero cells, 72 h"}, "[7]": {"conditions": "* not reliable because of the simultaneous toxic effect against Vero cells"}},
  "note": "Entries after “also recorded” stand apart in the source; their conditions may differ. Read-outs that look alike come from different tables or passages of the source.",
  "data": [
    {"smiles": "C=CC[C@]1(O)CC[C@H]2[C@@H]3CCC4=CC(=O)CCC4=C3C=C[C@@]21C", "note": "[Altrenogest]", "values": [
      {"measurement": "Activity on Y Trypomastigotes", "setting": "[1]", "result": "did not exhibit detectable activity; also recorded: Not active"},
      {"measurement": "EC50 on K98 Trypomastigotes", "setting": "[2]", "result": "Not active"}
    ]},
    {"smiles": "CCCCOCCOc1ccc(-c2ccc3c(c2)/C=C(/C(=O)Nc2ccc([S@@+]([O-])Cc4cncn4CCC)cc2)CCCN3CC(C)C)cc1", "note": "[Cenicriviroc]", "values": [
      {"measurement": "primary efficacy endpoints for fibrosis", "setting": "[3]", "result": "did not meet its primary efficacy endpoints"},
      {"measurement": "EC50", "setting": "[4]; [6]", "result": 4.76, "unit": "µM"},
      {"measurement": "activity on intracellular amastigotes", "setting": "[4]", "result": "active"},
      {"measurement": "selectivity index", "setting": "[4]; intracellular amastigotes versus Vero cells", "result": "greater than 10"},
      {"measurement": "cytotoxic effects on Vero cells", "setting": "Vero cells", "result": "did not present cytotoxic activity"},
      {"measurement": "CC50 Vero Cells", "setting": "Vero cells", "result": "Not toxic"}
    ]},
    {"smiles": "C[C@]12CCC3=C4CCC(=O)C=C4CC[C@H]3[C@@H]1CC[C@@]2(O)CC#N", "note": "[Dienogest]", "values": [
      {"measurement": "Activity on Y Trypomastigotes", "setting": "[1]", "result": "did not exhibit detectable activity; also recorded: Not active"},
      {"measurement": "EC50 on K98 Trypomastigotes", "setting": "[2]", "result": "Not active"}
    ]},
    {"smiles": "Cc1ccc(-n2nc(C(C)(C)C)cc2NC(=O)Nc2ccc(OCCN3CCOCC3)c3ccccc23)cc1", "note": "[Doramapimod]", "values": [
      {"measurement": "EC50", "setting": "[4]; [6]", "result": 11, "unit": "µM"},
      {"measurement": "activity on intracellular amastigotes", "setting": "[4]", "result": "active"},
      {"measurement": "cytotoxic effects on Vero cells", "setting": "Vero cells", "result": "did not present cytotoxic activity"},
      {"measurement": "CC50 Vero Cells", "setting": "Vero cells", "result": "Not toxic"}
    ]},
    {"smiles": "COCCNCc1ccc(-c2cc3nccc(Oc4ccc(NC(=S)NC(=O)Cc5ccc(F)cc5)cc4F)c3s2)nc1", "note": "[Glesatinib]", "values": [
      {"measurement": "EC50", "setting": "[4]; [7]", "result": 6.49, "unit": "µM"},
      {"measurement": "cytotoxic effects on Vero cells", "setting": "Vero cells", "result": "cytotoxic effects"},
      {"measurement": "CC50", "setting": "[5]", "result": "~25", "unit": "µM"}
    ]},
    {"smiles": "CC(F)(F)c1cc(F)ccc1-c1sc2cc(O)ccc2c1Oc1ccc(/C=C/C(=O)O)cc1", "note": "[LSZ-102]", "values": [
      {"measurement": "EC50", "setting": "[4]; [6]", "result": 19.4, "unit": "µM"},
      {"measurement": "activity on intracellular amastigotes", "setting": "[4]", "result": "active"},
      {"measurement": "cytotoxic effects on Vero cells", "setting": "Vero cells", "result": "did not present cytotoxic activity"},
      {"measurement": "CC50 Vero Cells", "setting": "Vero cells", "result": "Not toxic"}
    ]},
    {"smiles": "CC#C[C@]1(O)CC[C@H]2[C@@H]3CCC4=CC(=O)CCC4=C3[C@@H](c3ccc(N(C)C)cc3)C[C@@]21C", "note": "[Mifepristone]", "values": [
      {"measurement": "reduction in parasite viability", "setting": "[1]; 50 µM, after 24 h of incubation, Y strain", "result": 69.5, "unit": "%"},
      {"measurement": "Activity on Y Trypomastigotes", "setting": "[1]", "result": "Active"},
      {"measurement": "EC50", "setting": "[2]; Trypanosoma cruzi", "result": 17.9, "unit": "µM"}
    ]},
    {"smiles": "CC1(C)CCC(c2ccc(Cl)cc2)=C(CN2CCN(c3ccc(C(=O)NS(=O)(=O)c4ccc(N[C@H](CCN5CCOCC5)CSc5ccccc5)c(S(=O)(=O)C(F)(F)F)c4)cc3)CC2)C1", "note": "[Navitoclax]", "values": [
      {"measurement": "EC50", "setting": "[4]; [7]", "result": 2.14, "unit": "µM"},
      {"measurement": "cytotoxic effects on Vero cells", "setting": "Vero cells", "result": "cytotoxic effects"},
      {"measurement": "CC50", "setting": "[5]", "result": 6.03, "unit": "µM"}
    ]}
  ]
}
